This is an account of results in ChEMBL document CHEMBL3046183, “2,4,6-Trihydroxybenzaldehyde as a potent antidiabetic agent alleviates postprandial hyperglycemia in normal and diabetic rats” (Med Chem Res, 2011).

pIC50: −log10 of the molar value. Active and inactive are the calls of the source. The rule behind the calls is not given here.

Assay [1] is described as follows: Inhibition of alpha-glucosidase (unknown origin) using PNPG as substrate assessed as p-nitrophenol release from substrate after 30 min. Details: species or system Homo sapiens.
Assay [2] concerns Rattus norvegicus. Description: Antidiabetic activity in maltose loaded Rattus norvegicus Sprague-Dawley (rat) streptozotocin-induced diabetic model assessed as reduction of blood glucose level at 50 mg/kg administered intragastrically immediately after maltose load after 2 hr. It counts as functional, organism-based. Also noted: dose 50 mg/kg.
The test system of assay [3] is Rattus norvegicus. Description: Antihyperglycemic activity in glucose treated Rattus norvegicus Sprague-Dawley (rat) assessed as reduction of postprandial blood glucose level at 50 mg/kg administered intragastrically immediately after glucose load after 30 min (reference value: 95.7 to 182.3 mg/dl). It is filed as functional. The conditions noted are these: route intragastric.

Assay [4] deals with Rattus norvegicus. The assay can be described thus: Antihyperglycemic activity in maltose treated Rattus norvegicus Sprague-Dawley (rat) assessed as reduction of postprandial blood glucose level at 50 mg/kg administered intragastrically immediately after maltose load after 2 hr. It counts as functional, organism-based. Also noted: dose 50 mg/kg.
The test system of assay [5] is Rattus norvegicus. The assay can be described thus: Antidiabetic activity in Rattus norvegicus Sprague-Dawley (rat) streptozotocin-induced diabetic model assessed as reduction of blood glucose level at 50 mg/kg administered intragastrically after 30 min (reference value: 378.2 to 594.7 mg/dl). It is filed as functional. The conditions noted are these: route intragastric.

The subject of assay [6] is Rattus norvegicus. The assay can be described thus: Antihyperglycemic activity in glucose treated Rattus norvegicus Sprague-Dawley (rat) assessed as reduction of postprandial blood glucose level at 20 mg/kg administered intragastrically immediately after glucose load after 30 min (reference value: 95.7 to 182.3 mg/dl). It is filed as functional. The conditions noted are these: route intragastric.

Assay [7] has as its system Radical scavenging activity. Description: Antioxidant activity assessed as DPPH radical scavenging activity after 30 min. It counts as functional.
For assay [8], the system named is Rattus norvegicus. Description: Antihyperglycemic activity in maltose treated Rattus norvegicus Sprague-Dawley (rat) assessed as reduction of postprandial blood glucose level at 20 mg/kg administered intragastrically immediately after maltose load after 2 hr. Also noted: dose 20 mg/kg. It counts as functional, organism-based.
The species named for assay [9] is Homo sapiens. Description: Noncompetitive inhibition of alpha-glucosidase (unknown origin) using PNPG as substrate by Lineweaver-Burk plot analysis.
Assay [10] deals with Rattus norvegicus. The assay can be described thus: Antidiabetic activity in Rattus norvegicus Sprague-Dawley (rat) streptozotocin-induced diabetic model assessed as reduction of blood glucose level at 20 mg/kg administered intragastrically after 30 min (reference value: 378.2 to 594.7 mg/dl). The conditions noted are these: route intragastric. It counts as functional.
Assay [11] deals with Rattus norvegicus. The assay can be described thus: Antidiabetic activity in maltose loaded Rattus norvegicus Sprague-Dawley (rat) streptozotocin-induced diabetic model assessed as reduction of blood glucose level at 20 mg/kg administered intragastrically immediately after maltose load after 2 hr. It is filed as functional, organism-based. Also noted: dose 20 mg/kg.

Consider `COc1cc(OC)c(C=O)c(OC)c1` [2,4,6-TRIMETHOXYBENZALDEHYDE], for which, in assay [1], the pIC50 (as a rule, the IC50 on a negative log10 scale, so that one unit is a factor of ten) was 2.62.
Consider `C[C@H]1O[C@H](O[C@H]2[C@H](O)[C@@H](O)[C@@H](O[C@H]3[C@H](O)[C@@H](O)C(O)O[C@@H]3CO)O[C@@H]2CO)[C@H](O)[C@@H](O)[C@@H]1N[C@H]1C=C(CO)[C@@H](O)[C@H](O)[C@H]1O` (some centres undefined) [ACARBOSE], for which the outcome in assay [2] and in assay [4] was Active. Further, the Activity in assay [3] was 97.5 mg/dL; in assay [5], 372.1 mg/dL.
With `O=C(O)c1cc(O)c(O)c(O)c1` [GALLIC ACID], in assay [1], the pIC50 is 3.95.
Regarding `O=C(OC[C@H]1O[C@@H](OC(=O)c2cc(O)c(O)c(O)c2)[C@H](OC(=O)c2cc(O)c(O)c(O)c2)[C@@H](OC(=O)c2cc(O)c(O)c(O)c2)[C@@H]1OC(=O)c1cc(O)c(O)c(O)c1)c1cc(O)c(O)c(O)c1` [PENTAGALLOYL GLUCOSE], the pIC50 in assay [1] was 6.41.
Take `O=Cc1c(O)cc(O)cc1O` [PHLOROGLUCINALDEHYDE]: the Activity in assay [6] worked out at 96.5 mg/dL; in [10], 367.9 mg/dL. For the same compound, the pIC50 in [7] was 4.15; in assay [1], 5.34. The outcome in [8] and in assay [11] was inactive. In addition, the inhibition entry in assay [9] is “Active”.
